Where two headings read alike, the source gives them in different places.
Legend:
[1] = biological target: T1, SHV-5 β-lactamase (Klebsiella pneumoniae, UniProt P0A3M1); assay: β-lactamase enzyme inhibition, SHV-5; assay type: biochemical
T1 construct: made in house; host or cells: E. coli BL21(DE3)
Experimental: (§1) For SHV-5, Kpc-2, p99AmpC and OXA-1 β-lactamases, E. coli BL21(DE3) bacterial cells carrying expression plasmids (expressed as native untagged proteins) for the individual β-lactamases were grown in 1 L of Superbroth (Teknova Inc. Hollister, Calif.) supplemented with 100 μg/ml kanamycin selection and 1×5052 (0.5% glycerol, 0.05% glucose and 0.2% α-lactose) at 35° C. for 18-20 hours. Cells were harvested by centrifugation (4,000×g, 4° C., 20 min), resuspended in 50 ml of 10 mM HEPES pH 7.5 ( 1/20 of the initial volume). The cells were lysed by sonication (5 pulses of 45 seconds) at 45 W on ice. The lysates were clarified by centrifugation at 10,000×g for 40 minutes at 4° C. Samples were diluted 5-fold in 50 mM sodium acetate pH 5.0, stored overnight at 4° C., after which they were centrifuged at 10,000×g for 30 minutes to clarify, and filtered through 0.45 μm filters. The samples were loaded onto a 5 ml Capto S sepharose cation exchange column (GE Healthcare) pre-equilibrated with 50 mM sodium acetate pH 5.0. The column was washed with 5 column volumes of 50 mM sodium acetate pH 5.0 to wash out unbound protein and a linear gradient of NaCl (0 to 500 mM) was used to elute the protein (over 16 CV) from the column. Fractions were assayed for […] activity using Centa (Calbiochem, Gibbstown, N.J.) or Nitrocefin (EMD Millipore chemicals, Darmstadt, Germany) as a reporter β-lactamase substrate for activity in the isolated fractions. Active fractions were pooled, concentrated and further purified by gel filtration chromatography on a Superdex 75 prep grade gel filtration column (GE Healthcare, Piscataway, N.J.) pre-equilibrated in 50 mM Hepes pH 7.5, 150 mM NaCl. Active fractions were pooled, concentrated, and quantitated by BCA protein determination (Thermo Scientific, Rockford, Ill.), dialyzed into PBS and frozen at −80° C. in 20% glycerol until use.
(§2) An equal volume of diluted enzyme stock was added, and the plates were incubated at 37° C. for 15 min. Nitrocefin was used as substrate for p99 AmpC, VIM-2 and OXA-1 and dispensed into each well at a final concentration of 100 μM. Absorbance at 486 nm was immediately monitored for 10 min using a Biotek Powerwave XS2 microplate spectrophotometer using the GEN5 software package (Biotek Instruments, Winooski Vt.). In an analogous fashion, imipenem was used as substrate for KPC-2 and Cefotaxime was used for SHV-5, while changes in absorbance upon hydrolysis of the β-lactam ring were monitored at 300 nm and 260 nm respectively in UV-transparent 96-well microtiter assay plates. Maximum rates of hydrolysis were compared to those in control wells (without inhibitors), and percentages of enzyme inhibition were calculated for each concentration of inhibitor. The concentration of inhibitor needed to reduce the initial rate of hydrolysis of substrate by 50% (IC50) was calculated as the residual activity of β-lactamase at 486 nm using GraFit version 7 kinetics software package (Erithacus Software, Surrey, UK).
(§3) Using the methodology described above, examples of the current invention were evaluated for their ability to inhibit β-lactamase enzymes from all four Ambler classifications (A through D). […] NT=Not tested.

[2] = biological target: T2, KPC-2 β-lactamase (Klebsiella pneumoniae, UniProt Q9F663); assay: β-lactamase enzyme inhibition, KPC-2; assay type: biochemical
T2 construct: made in house; host or cells: E. coli BL21(DE3)
T2 sequence (Q9F663 25-293, looked up): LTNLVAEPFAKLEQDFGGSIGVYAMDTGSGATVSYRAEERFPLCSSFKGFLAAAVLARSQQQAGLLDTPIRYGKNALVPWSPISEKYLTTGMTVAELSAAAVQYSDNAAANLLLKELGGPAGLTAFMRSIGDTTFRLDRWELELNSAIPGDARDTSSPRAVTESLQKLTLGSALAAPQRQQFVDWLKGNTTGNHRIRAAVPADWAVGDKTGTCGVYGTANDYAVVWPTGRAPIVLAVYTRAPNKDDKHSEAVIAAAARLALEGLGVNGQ
Experimental: as §1, §2, §3

[3] = biological target: T3, VIM-2 metallo β-lactamase (Pseudomonas aeruginosa, UniProt Q9K2N0); assay: β-lactamase enzyme inhibition, VIM-2; assay type: biochemical; conditions: Nitrocefin 100 μM, 486 nm; 15 min at 37° C. preincubation; read-out: IC50 VIM-2 (Class B)
T3 construct: made in house; host or cells: E. coli BL21(DE3)
Experimental: For VIM-2 metallo β-lactamase, the procedure was identical with the following exceptions, first the protein was not pH adjusted to pH 5 with 50 mM sodium acetate. Second, the chromatography step was changed to a 5 ml Q sepharose anion exchange column pre-equilibrated with 50 mM Hepes pH 7.5, and elution of the protein was achieved by a linear gradient of NaCl (0-600 mM). Finally, the VIM-2 purification required a second run (3rd step) on the Q sepharose anion exchange column to achieve acceptable purity (>90%).
as §2, §3

[4] = biological target: T4, p99 AmpC β-lactamase (Enterobacter cloacae, UniProt P05364); assay: β-lactamase enzyme inhibition, p99 AmpC; assay type: biochemical
T4 construct: made in house; host or cells: E. coli BL21(DE3)
T4 sequence (P05364 21-381): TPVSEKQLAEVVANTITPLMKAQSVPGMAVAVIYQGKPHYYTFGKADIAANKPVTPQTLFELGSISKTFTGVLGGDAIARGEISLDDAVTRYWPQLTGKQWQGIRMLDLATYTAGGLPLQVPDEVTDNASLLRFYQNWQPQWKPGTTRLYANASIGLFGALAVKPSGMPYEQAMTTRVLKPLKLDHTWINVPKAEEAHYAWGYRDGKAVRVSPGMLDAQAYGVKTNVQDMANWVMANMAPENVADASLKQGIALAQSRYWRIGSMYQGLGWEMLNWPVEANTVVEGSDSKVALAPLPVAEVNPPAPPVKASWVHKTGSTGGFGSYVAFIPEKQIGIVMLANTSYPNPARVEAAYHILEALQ
Experimental: as §1, §2
Using the methodology described above, examples of the current invention were evaluated for their ability to inhibit β-lactamase enzymes from all four Ambler classifications (A through D).

[5] = biological target: T5, OXA-1 β-lactamase (Escherichia coli, UniProt P13661); assay: β-lactamase enzyme inhibition, OXA-1; assay type: biochemical; conditions: Nitrocefin 100 μM, 486 nm; 15 min at 37° C. preincubation; read-out: IC50 OXA-1 (Class D)
T5 construct: made in house; host or cells: E. coli BL21(DE3)
T5 sequence (P13661 26-276): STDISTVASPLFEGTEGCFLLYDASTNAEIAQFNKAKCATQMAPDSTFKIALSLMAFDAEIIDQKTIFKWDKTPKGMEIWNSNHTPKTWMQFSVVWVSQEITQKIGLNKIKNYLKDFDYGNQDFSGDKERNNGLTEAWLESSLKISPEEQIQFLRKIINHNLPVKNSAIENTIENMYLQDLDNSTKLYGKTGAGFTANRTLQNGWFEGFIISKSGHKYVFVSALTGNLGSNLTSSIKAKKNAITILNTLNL
Experimental: as §1, §2, §3

[6] = test system: E. coli ESBL4 expressing CTX-M-15; assay: broth microdilution MIC, E. coli CTX-M-15; assay type: cell-based; conditions: Fixed CAZ (ceftazidime) 4 μg/mL
In short: (§4)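 CAMHB; strains pre-grown 3-5 h. Test cpd 2-fold dilutions, 32→0.25 μg/mL final, + beta-lactam static 4 μg/mL. CLSI inoculation, 16-20 h at 37° C, visual MIC.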

[7] = test system: E. cloacae 144200 expressing Class C P99 AmpC; assay: broth microdilution MIC, E. cloacae P99; assay type: cell-based; conditions: Fixed CAZ (ceftazidime) 4 μg/mL
In short: as §4

[8] = test system: K. pneumoniae 156319 expressing KPC-3; assay: broth microdilution MIC, K. pneumoniae KPC-3; assay type: cell-based; conditions: Fixed Mero (meropenem) 4 μg/mL
In short: as §4

[9] = test system: K. pneumoniae A-1797 expressing KPC-2 and VIM-4; assay: broth microdilution MIC, K. pneumoniae KPC-2 and VIM-4; assay type: cell-based; conditions: Fixed Mero (meropenem) 4 μg/mL
In short: as §4

[10] = imipenem substrate, 300 nm, 15 min at 37° C. preincubation, read-out: IC50 KPC-2 (Class A)

T1 sequence (P0A3M1 22-286): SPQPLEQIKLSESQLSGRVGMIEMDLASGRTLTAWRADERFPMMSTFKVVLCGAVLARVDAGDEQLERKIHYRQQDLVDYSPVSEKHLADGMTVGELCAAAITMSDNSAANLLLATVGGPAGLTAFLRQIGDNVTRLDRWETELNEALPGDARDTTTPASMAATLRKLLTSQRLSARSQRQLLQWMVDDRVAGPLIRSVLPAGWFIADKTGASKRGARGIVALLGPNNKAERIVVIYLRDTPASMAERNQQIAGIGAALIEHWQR

C#CCCC(=O)N[C@H]1Cc2cccc(C(=O)O)c2OB1O [Example 37, (R)-2-Hydroxy-3-pent-4-ynoylamino-3,4-dihydro-2H-benzo[e][1,2]oxaborinine-8-carboxylic acid]
IC50 [1]: < 0.1 µM
IC50 [2]: < 0.1 µM
IC50 [3]: 1 to 10 µM
IC50 [4]: < 0.1 µM
IC50 [5]: < 0.1 µM
MIC of exemplary compounds in presence of fixed β-lactams, E. coli ESBL4 CTX-M-15 [6]: C (C represents the MIC in the presence of ≤4 g/mL of a β-lactamase inhibitor)
MIC of exemplary compounds in presence of fixed β-lactams, E. cl. 144200 p99 AmpC [7]: C (C represents the MIC in the presence of ≤4 g/mL of a β-lactamase inhibitor)
MIC of exemplary compounds in presence of fixed β-lactams, K.P. 156319 KPC-3 [8]: C (C represents the MIC in the presence of ≤4 g/mL of a β-lactamase inhibitor)
MIC of exemplary compounds in presence of fixed β-lactams, K.P. A-1797 KPC-2 VIM-4 [9]: B (B represents the MIC in the presence of between 8 and 32 g/mL of a β-lactamase inhibitor)

O=C(CCC(=O)C(F)(F)F)N[C@H]1Cc2cccc(C(=O)O)c2OB1O [Example 38, (R)-2-Hydroxy-3-(5,5,5-trifluoro-4-oxo-pentanoylamino)-3,4-dihydro-2H-benzo[e][1,2]oxaborinine-8-carboxylicacid]
IC50 [1]: < 0.1 µM
IC50 [2, 10]: 0.1 to 1 µM
IC50 [3]: 1 to 10 µM
IC50 [4]: < 0.1 µM
IC50 [5]: < 0.1 µM
MIC of exemplary compounds in presence of fixed β-lactams, E. coli ESBL4 CTX-M-15 [6]: B (B represents the MIC in the presence of between 8 and 32 g/mL of a β-lactamase inhibitor)
MIC of exemplary compounds in presence of fixed β-lactams, E. cl. 144200 p99 AmpC [7]: C (C represents the MIC in the presence of ≤4 g/mL of a β-lactamase inhibitor)
MIC of exemplary compounds in presence of fixed β-lactams, K.P. 156319 KPC-3 [8]: B (B represents the MIC in the presence of between 8 and 32 g/mL of a β-lactamase inhibitor)
MIC of exemplary compounds in presence of fixed β-lactams, K.P. A-1797 KPC-2 VIM-4 [9]: B (B represents the MIC in the presence of between 8 and 32 g/mL of a β-lactamase inhibitor)

CC(=O)/C=C/C(=O)N[C@H]1Cc2cccc(C(=O)O)c2OB1O [Example 39, (R)-2-Hydroxy-3-(4-oxo-pent-2-enoylamino)-3,4-dihydro-2H-benzo[e][1,2]oxaborinine-8-carboxylic acid]
IC50 [1]: < 0.1 µM
IC50 [2, 10]: < 0.1 µM
IC50 [3]: 0.1 to 1 µM
IC50 [4]: < 0.1 µM
IC50 [5]: < 0.1 µM
MIC of exemplary compounds in presence of fixed β-lactams, E. coli ESBL4 CTX-M-15 [6]: C (C represents the MIC in the presence of ≤4 g/mL of a β-lactamase inhibitor)
MIC of exemplary compounds in presence of fixed β-lactams, E. cl. 144200 p99 AmpC [7]: C (C represents the MIC in the presence of ≤4 g/mL of a β-lactamase inhibitor)
MIC of exemplary compounds in presence of fixed β-lactams, K.P. 156319 KPC-3 [8]: B (B represents the MIC in the presence of between 8 and 32 g/mL of a β-lactamase inhibitor)
MIC of exemplary compounds in presence of fixed β-lactams, K.P. A-1797 KPC-2 VIM-4 [9]: B (B represents the MIC in the presence of between 8 and 32 g/mL of a β-lactamase inhibitor)

CC(C)(C)C(=O)CCC(=O)N[C@H]1Cc2cccc(C(=O)O)c2OB1O [Example 40, (R)-3-(5,5-Dimethyl-4-oxo-hexanoylamino)-2-hydroxy-3,4-dihydro-2H-benzo[e][1,2]oxaborinine-8-carboxylic acid]
IC50 [1]: < 0.1 µM
IC50 [2, 10]: < 0.1 µM
IC50 [3]: 1 to 10 µM
IC50 [4]: < 0.1 µM
IC50 [5]: < 0.1 µM
MIC of exemplary compounds in presence of fixed β-lactams, E. coli ESBL4 CTX-M-15 [6]: C (C represents the MIC in the presence of ≤4 g/mL of a β-lactamase inhibitor)
MIC of exemplary compounds in presence of fixed β-lactams, E. cl. 144200 p99 AmpC [7]: C (C represents the MIC in the presence of ≤4 g/mL of a β-lactamase inhibitor)
MIC of exemplary compounds in presence of fixed β-lactams, K.P. 156319 KPC-3 [8]: B (B represents the MIC in the presence of between 8 and 32 g/mL of a β-lactamase inhibitor)
MIC of exemplary compounds in presence of fixed β-lactams, K.P. A-1797 KPC-2 VIM-4 [9]: B (B represents the MIC in the presence of between 8 and 32 g/mL of a β-lactamase inhibitor)

CC(=O)CC(=O)CCC(=O)N[C@H]1Cc2cccc(C(=O)O)c2OB1O [Example 41, (R)-3-(4,6-Dioxo-heptanoylamino)-2-hydroxy-3,4-dihydro-2H-benzo[e][1,2]oxaborinine-8-carboxylic acid]
IC50 [1]: < 0.1 µM
IC50 [2, 10]: 0.1 to 1 µM
IC50 [3]: < 0.1 µM
IC50 [4]: < 0.1 µM
IC50 [5]: < 0.1 µM
MIC of exemplary compounds in presence of fixed β-lactams, E. coli ESBL4 CTX-M-15 [6]: C (C represents the MIC in the presence of ≤4 g/mL of a β-lactamase inhibitor)
MIC of exemplary compounds in presence of fixed β-lactams, E. cl. 144200 p99 AmpC [7]: C (C represents the MIC in the presence of ≤4 g/mL of a β-lactamase inhibitor)
MIC of exemplary compounds in presence of fixed β-lactams, K.P. 156319 KPC-3 [8]: B (B represents the MIC in the presence of between 8 and 32 g/mL of a β-lactamase inhibitor)
MIC of exemplary compounds in presence of fixed β-lactams, K.P. A-1797 KPC-2 VIM-4 [9]: C (C represents the MIC in the presence of ≤4 g/mL of a β-lactamase inhibitor)

O=C(CCC(=O)c1ccccc1)N[C@H]1Cc2cccc(C(=O)O)c2OB1O [Example 42, (R)-2-Hydroxy-3-(4-oxo-4-phenyl-butyrylamino)-3,4-dihydro-2H-benzo[e][1,2]oxaborinine-8-carboxylic acid]
IC50 [1]: < 0.1 µM
IC50 [2, 10]: < 0.1 µM
IC50 [3]: 0.1 to 1 µM
IC50 [4]: < 0.1 µM
IC50 [5]: < 0.1 µM
MIC of exemplary compounds in presence of fixed β-lactams, E. coli ESBL4 CTX-M-15 [6]: C (C represents the MIC in the presence of ≤4 g/mL of a β-lactamase inhibitor)
MIC of exemplary compounds in presence of fixed β-lactams, E. cl. 144200 p99 AmpC [7]: C (C represents the MIC in the presence of ≤4 g/mL of a β-lactamase inhibitor)
MIC of exemplary compounds in presence of fixed β-lactams, K.P. 156319 KPC-3 [8]: B (B represents the MIC in the presence of between 8 and 32 g/mL of a β-lactamase inhibitor)
MIC of exemplary compounds in presence of fixed β-lactams, K.P. A-1797 KPC-2 VIM-4 [9]: B (B represents the MIC in the presence of between 8 and 32 g/mL of a β-lactamase inhibitor)

Reference: patent US11008346B2, “Beta-lactamase inhibitors” (priority 2014, dated 2021)
